Source: US7968577B2 (Bristol-Myers Squibb Company, priority 2006, dated 2011)

Target: T1, human glucocorticoid receptor (Homo sapiens, UniProt P04150)
T1 construct: purified human recombinant full-length glucocorticoid receptor; purchased Invitrogen Part #2893
T1 sequence (P04150 1-777): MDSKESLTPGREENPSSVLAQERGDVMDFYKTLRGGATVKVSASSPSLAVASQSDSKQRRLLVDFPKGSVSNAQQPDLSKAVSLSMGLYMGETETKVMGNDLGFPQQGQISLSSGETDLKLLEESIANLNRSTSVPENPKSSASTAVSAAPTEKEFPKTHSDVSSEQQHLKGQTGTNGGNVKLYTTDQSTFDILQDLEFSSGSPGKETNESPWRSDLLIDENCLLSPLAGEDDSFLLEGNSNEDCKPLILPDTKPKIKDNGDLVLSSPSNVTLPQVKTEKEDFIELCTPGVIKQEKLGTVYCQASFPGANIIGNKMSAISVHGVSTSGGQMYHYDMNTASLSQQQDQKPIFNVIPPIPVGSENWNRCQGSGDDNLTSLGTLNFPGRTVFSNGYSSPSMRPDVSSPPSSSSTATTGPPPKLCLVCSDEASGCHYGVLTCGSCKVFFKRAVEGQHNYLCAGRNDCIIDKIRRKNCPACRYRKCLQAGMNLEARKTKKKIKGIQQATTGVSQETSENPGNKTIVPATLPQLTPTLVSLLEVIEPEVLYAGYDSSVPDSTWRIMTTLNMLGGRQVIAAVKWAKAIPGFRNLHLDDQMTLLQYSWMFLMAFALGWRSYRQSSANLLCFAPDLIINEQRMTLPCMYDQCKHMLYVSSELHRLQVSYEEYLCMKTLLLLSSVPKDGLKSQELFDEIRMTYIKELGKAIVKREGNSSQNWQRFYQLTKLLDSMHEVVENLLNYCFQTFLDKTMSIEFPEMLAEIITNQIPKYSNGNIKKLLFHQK
Assay: Glucocorticoid Receptor Binding Assay (I), fluorescence polarization competitor kit (Fluormone GS Red)
Conditions: GR Binding Assay (I)
Protocol: Glucocorticoid Receptor Binding Assay (I)^a
In order to assess the affinity of test compounds for the human glucocorticoid receptor, a commercially available kit was used (Glucocorticoid Receptor Competitor Assay Kit, Invitrogen Part #2893). Briefly, purified human recombinant full-length glucocorticoid receptor (2 nM) was mixed with fluorescently labeled glucocorticoid (1 nM Fluormone GS Red) in the presence or absence of test compound. After two hour incubation at room temperature in the dark, the fluorescence polarization (FP) of the samples was measured. […] Test compounds were analyzed in the concentration range from 8.5 E-05 μM to 5 μM.

Ki | Compound
5.72 nM | CC(C)(C(=O)Nc1nncs1)C(c1ccccc1)c1ccc(-c2ccc(CO)cc2)cc1 (stereo not shown) [Example 421, 3-(4′-(hydroxymethyl)-4-biphenylyl)-2,2-dimethyl-3-phenyl-N-1,3,4-thiadiazol-2-ylpropanamide]
24.2 nM | CN(C)C(=O)c1ccc(-c2ccc(C(c3ccccc3)C(C)(C)C(=O)Nc3nncs3)cc2)cc1 (stereo not shown) [Example 380, 4′-(2,2-dimethyl-3-oxo-1-phenyl-3-(1,3,4-thiadiazol-2-ylamino)propyl)-N,N-dimethyl-4-biphenylcarboxamide]
16.5 nM | CC(C)(C(=O)Nc1nncs1)C(c1ccccc1)c1ccc(-c2ccc(O)cc2)cc1 (stereo not shown) [Example 412, 3-(4′-hydroxy-4-biphenylyl)-2,2-dimethyl-3-phenyl-N-1,3,4-thiadiazol-2-ylpropanamide]
101 nM | CCC(CC)(C(=O)Nc1nccs1)C(c1ccccc1)c1ccccc1 [Example 159, 2-(diphenylmethyl)-2-ethyl-N-1,3-thiaozl-2-ylbutanamide]
184 nM | CC(C)CC(c1ccc(-c2ccc(Cl)cc2)cc1)C(C)(C)C(=O)Nc1nncs1 (stereo not shown) [Example 432, 3-(4′-chloro-4-biphenylyl)-2,2,5-trimethyl-N-1,3,4-thiadiazol-2-ylhexanamide]
9.27 nM | CC(=O)Nc1ccc(-c2ccc(C(c3ccccc3)C(C)(C)C(=O)Nc3nncs3)cc2)cc1 (stereo not shown) [Example 414, 3-(4′-acetamido-4-biphenylyl)-2,2-dimethyl-3-phenyl-N-1,3,4-thiadiazol-2-ylpropanamide]
9.18 nM | CC(C)Cc1ccc(-c2ccc(C(c3ccccc3)C(C)(C)C(=O)Nc3nncs3)cc2)cc1 (stereo not shown) [Example 383, 2,2-dimethyl-3-(4′-(2-methylpropyl)-4-biphenylyl)-3-phenyl-N-1,3,4-thiadiazol-2-ylpropanamide]
13.8 nM | CC(C)Oc1ccc(-c2ccc(C(c3ccccc3)C(C)(C)C(=O)Nc3nncs3)cc2)cc1F (stereo not shown) [Example 385, 3-(3′-fluoro-4′-((1-methylethyl)oxy)-4-biphenylyl)-2,2-dimethyl-3-phenyl-N-1,3,4-thiadiazol-2-ylpropanamide]
19.4 nM | CC(C)CC(c1ccc(-c2cccc(Cl)c2)cc1)C(C)(C)C(=O)Nc1nncs1 (stereo not shown) [Example 434, 3-(3′-chloro-4-biphenylyl)-2,2,5-trimethyl-N-1,3,4-thiadiazol-2-ylhexanamide]
1.81 nM | COc1ccc(-c2ccc(C(c3ccccc3)C(C)(C)C(=O)Nc3nncs3)cc2)cc1 (stereo not shown) [Example 377, 2,2-dimethyl-3-(4′-(methyloxy)-4-biphenylyl)-3-phenyl-N-1,3,4-thiadiazol-2-ylpropanamide]
110 nM | CC(=O)c1cccc(-c2ccc(C(c3ccccc3)C(C)(C)C(=O)Nc3nncs3)cc2)c1 (stereo not shown) [Example 413, 3-(3′-acetyl-4-biphenylyl)-2,2-dimethyl-3-phenyl-N-1,3,4-thiadiazol-2-ylpropanamide]
9.28 nM | COc1ccc(-c2ccc(C(CC(C)C)C(C)(C)C(=O)Nc3nncs3)cc2)cc1 (stereo not shown) [Example 394, 2,2,5-trimethyl-3-(4′-(methyloxy)-4-biphenylyl)-N-1,3,4-thiadiazol-2-ylhexanamide]
4.65 nM | CC(C)CC(c1ccc(N2CCOCC2)cc1)C(C)(C)C(=O)Nc1nccs1 (stereo not shown) [Example 389, 2,2,5-trimethyl-3-(4-(4-morpholinyl)phenyl)-N-1,3-thiazol-2-ylhexanamide]
1150 nM | CC(C)(C)c1csc(NC(=O)C2(C(c3ccccc3)c3ccccc3)CCCC2)n1 [Example 151, N-(4-(1,1-dimethylethyl)-1,3-thiazol-2-yl)-1-(diphenylmethyl) cyclopentanecarboxamide]
36.9 nM | O=C(Nc1nccs1)C1(C(c2ccccc2)c2ccccc2)CCCCC1 [Example 156, 1-(diphenylmethyl)-N-1,3-thiazol-2-ylcyclohexanecarboxamide]
14 nM | Cc1nnc(NC(=O)C(C)(C)C(CC(C)C)c2ccc(N3CCOCC3)cc2)s1 (stereo not shown) [Example 388, 2,2,5-trimethyl-N-(5-methyl-1,3,4-thiadiazol-2-yl)-3-(4-(4-morpholinyl)phenyl)hexanamide]
17.9 nM | COCc1ccc(-c2ccc(C(CC(C)C)C(C)(C)C(=O)Nc3nncs3)cc2)cc1 (stereo not shown) [Example 428, 3-(4′-(methoxymethyl)-4-biphenylyl)-2,2,5-trimethyl-N-1,3,4-thiadiazol-2-ylhexanamide]

Ki | Compound
21.4 nM | CC(=O)Nc1ccc(-c2ccc(C(CC(C)C)C(C)(C)C(=O)Nc3nncs3)cc2)cc1 (stereo not shown) [Example 440, 3-(4′-acetamido-4-biphenylyl)-2,2,5-trimethyl-N-1,3,4-thiadiazol-2-ylhexanamide]
9.85 nM | COc1ccc(C(c2ccccc2)C(C)(C)C(=O)Nc2nncs2)cc1C (stereo not shown) [Example 293, 2,2-dimethyl-3-(3-methyl-4-(methyloxy)phenyl)-3-phenyl-N-1,3,4-thiadiazol-2-ylpropanamide]
4.87 nM | CCOc1ccc(-c2ccc(C(CC(C)C)C(C)(C)C(=O)Nc3nncs3)cc2)cc1 (stereo not shown) [Example 430, 3-(4′-ethoxy-4-biphenylyl)-2,2,5-trimethyl-N-1,3,4-thiadiazol-2-ylhexanamide]
10.7 nM | COc1ccccc1-c1ccc(C(CC(C)C)C(C)(C)C(=O)Nc2nncs2)cc1 (stereo not shown) [Example 435, 3-(2′-methoxy-4-biphenylyl)-2,2,5-trimethyl-N-1,3,4-thiadiazol-2-ylhexanamide]
20.6 nM | CC(C)CC(c1ccc(Br)cc1)C(C)(C)C(=O)Nc1nccs1 (stereo not shown) [Example 386, 3-(4-bromophenyl)-2,2,5-trimethyl-N-1,3-thiazol-2-ylhexanamide]
20.3 nM | CC(=O)c1cccc(-c2ccc(C(CC(C)C)C(C)(C)C(=O)Nc3nncs3)cc2)c1 (stereo not shown) [Example 439, 3-(3′-acetyl-4-biphenylyl)-2,2,5-trimethyl-N-1,3,4-thiadiazol-2-ylhexanamide]
9.28 nM | CC(C)CC(c1ccc(-c2ccc(C(=O)N3CCOCC3)cc2)cc1)C(C)(C)C(=O)Nc1nncs1 (stereo not shown) [Example 427, 2,2,5-trimethyl-3-(4′-(4-morpholinylcarbonyl)-4-biphenylyl)-N-1,3,4-thiadiazol-2-ylhexanamide]
1.24 nM | CN(C)C(=O)c1ccc(-c2ccc(C(c3ccccc3)C(C)(C)C(=O)Nc3nncs3)cc2)cc1 (stereo not shown) [Example 379, 4′-(2,2-dimethyl-3-oxo-1-phenyl-3-(1,3,4-thiadiazol-2-ylamino)propyl)-N,N-dimethyl-4-biphenylcarboxamide]
154 nM | COc1ccccc1-c1ccc(C(c2ccccc2)C(C)(C)C(=O)Nc2nncs2)cc1 (stereo not shown) [Example 411, 3-(2′-methoxy-4-biphenylyl)-2,2-dimethyl-3-phenyl-N-1,3,4-thiadiazol-2-ylpropanamide]
7.1 nM | CCCc1ccc(-c2ccc(C(CC(C)C)C(C)(C)C(=O)Nc3nncs3)cc2)cc1 (stereo not shown) [Example 399, 2,2,5-trimethyl-3-(4′-propyl-4-biphenylyl)-N-1,3,4-thiadiazol-2-ylhexanamide]
52.8 nM | CC(C)CC(c1ccc(-c2ccccc2)cc1)C(C)(C)C(=O)Nc1nncs1 (stereo not shown) [Example 431, 3-(4-biphenylyl)-2,2,5-trimethyl-N-1,3,4-thiadiazol-2-ylhexanamide]
13.9 nM | COc1ccc(C(c2ccccc2)C(C)(C)C(=O)Nc2nncs2)cc1C (single isomer, unassigned) [Example 295, 2,2-dimethyl-3-(3-methyl-4-(methyloxy)phenyl)-3-phenyl-N-1,3,4-thiadiazol-2-ylpropanamide]
24.5 nM | COc1ccc([C@@H](c2ccccc2)C(C)(C)C(=O)Nc2nncs2)cc1Br [Example 292, (3R)-3-(3-bromo-4-(methyloxy)phenyl)-2,2-dimethyl-3-phenyl-N-1,3,4-thiadiazol-2-ylpropanamide]
5.33 nM | CC(C)CC(c1ccc(-c2ccc(OC(F)(F)F)cc2)cc1)C(C)(C)C(=O)Nc1nncs1 (stereo not shown) [Example 437, 2,2,5-trimethyl-N-1,3,4-thiadiazol-2-yl-3-(4′-(trifluoromethoxy)-4-biphenylyl)hexanamide]
12.4 nM | CC(C)CC(c1ccc(-c2ccc(-c3ccccc3)cc2)cc1)C(C)(C)C(=O)Nc1nncs1 (stereo not shown) [Example 433, 2,2,5-trimethyl-3-(1,1′:4′,1″-terphenyl-4-yl)-N-1,3,4-thiadiazol-2-ylhexanamide]
4.45 nM | COc1cccc(-c2ccc(C(c3ccccc3)C(C)(C)C(=O)Nc3nncs3)cc2)c1 (stereo not shown) [Example 410, 3-(3′-methoxy-4-biphenylyl)-2,2-dimethyl-3-phenyl-N-1,3,4-thiadiazol-2-ylpropanamide]

Compound | Ki
CCCCOc1ccc(-c2ccc(C(c3ccccc3)C(C)(C)C(=O)Nc3nncs3)cc2)cc1 (stereo not shown) [Example 416, 3-(4′-butoxy-4-biphenylyl)-2,2-dimethyl-3-phenyl-N-1,3,4-thiadiazol-2-ylpropanamide] | 42.5 nM
